# Source: paper PMC11593696, “Discovery of Potent Benzothiazole Inhibitors of Oxidoreductase NQO2, a Target for Inflammation and Cancer” (International Journal of Molecular Sciences, 2024)
# Read-outs that look alike come from different tables or passages of the source.
# Tests used:
# recombinant human NQO2 = molecular target: T1, recombinant human NQO2 (Homo sapiens, UniProt P16083); assay: NQO2 enzyme inhibition assay (DCPIP substrate, NRH or EPR co-substrate); assay type: biochemical
# T1 sequence (P16083 1-231): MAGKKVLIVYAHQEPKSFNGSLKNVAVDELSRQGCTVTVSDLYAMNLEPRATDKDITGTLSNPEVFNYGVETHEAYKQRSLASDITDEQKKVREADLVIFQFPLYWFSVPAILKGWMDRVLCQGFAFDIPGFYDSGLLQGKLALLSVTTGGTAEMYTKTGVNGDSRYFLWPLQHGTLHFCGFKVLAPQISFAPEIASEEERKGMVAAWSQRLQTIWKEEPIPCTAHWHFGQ
# Method: In this assay, dichlorophenolindophenol (DCPIP) was used as a substrate for NQO2. NRH (SI or EP0152R) was used as the co-substrate for the enzyme.
# The NQO2 enzyme assay was carried out using a […] GO spectrophotometer by measuring the absorbance of DCPIP at 600 nm. NRH [31] or EPR were used as co-substrates. The experiment was performed using a 96-well plate with a […] final volume using phosphate buffer (50 mM, pH 7.4). The final concentrations were DCPIP 40 µM and NRH or EPR 200 µM. The final enzyme concentration was 100 ng. The assay was performed at 37 °C and initiated through the addition of NQO2. The initial rates of the enzyme reactions were calculated from the curve by taking the initial slopes of the reactions using the formula (ΔAb/ΔTime). The assay of inhibitors was carried out using the same assay conditions. […] Each experiment was performed in triplicate. Rates were converted to the percentage of enzyme activity, and IC50 values were calculated using GraphPad Prism 7.03 software using the non-linear regression function. IC50 values were determined as a 50% decrease in NQO2 activity.
# NQO2 = details: read-out: dissociation constant; cited from earlier work
# [1] = inhibition of NQO2, DCPIP 40 µM, NRH or EPR 200 µM, phosphate buffer pH 7.4, 37 °C, triplicate, read-out: IC50 (µM) ± SD
# [2] = DCPIP substrate, NRH co-substrate, read-out: IC50 for inhibition of NQO2
SMILES,IC50 (recombinant human NQO2; [1]) [µM],melting point [°C],IC50 (recombinant human NQO2; [2]) [µM],Kd (NQO2) [µM]
"COc1cc(-c2nc3ccc(Cl)cc3s2)cc(OC)c1OC [Compound 43, 6-Chloro-2-(3,4,5-trimethoxyphenyl)benzo[d]thiazole]",0.773 ± 0.016,173 to 174,,
"COc1cc(-c2nc3ccc(C#N)cc3s2)cc(OC)c1OC [Compound 44, 2-(3,4,5-Trimethoxyphenyl)benzo[d]thiazole-6-carbonitrile]",13.28 ± 0.02,228 to 230,13.3,
"COc1cc(-c2nc3ccc(F)cc3s2)cc(OC)c1OC [Compound 45, 6-Fluoro-2-(3,4,5-trimethoxyphenyl)benzo[d]thiazole]",0.717 ± 0.015,156 to 158,,
"COc1cc(-c2nc3ccc([N+](=O)[O-])cc3s2)cc(OC)c1OC [Compound 47, 6-Nitro-2-(3,4,5-trimethoxyphenyl)benzo[d]thiazole]",0.754 ± 0.008,200 to 201,,
"COc1cc(-c2nc3ccc(N)cc3s2)cc(OC)c1OC [Compound 48, 2-(3,4,5-Trimethoxyphenyl)benzo[d]thiazol-6-amine]",0.079 ± 0.017,212 to 215,0.079,
"COc1cc(-c2nc3ccc(NC(C)=O)cc3s2)cc(OC)c1OC [Compound 49, N-(2-(3,4,5-Trimethoxyphenyl)benzo[d]thiazol-6-yl)acetamide]",0.031 ± 0.008,208 to 209,0.031,
"COc1cc(-c2nc3ccc(NC(=O)c4ccccc4)cc3s2)cc(OC)c1OC [Compound 50, N-(2-(3,4,5-Trimethoxyphenyl)benzo[d]thiazol-6-yl)benzamide]",3.17 ± 0.031,205 to 207,3.17,
"COc1cc(OC)cc(C(=O)Nc2ccc3nc(-c4cc(OC)c(OC)c(OC)c4)sc3c2)c1 [Compound 51, 3,5-Dimethoxy-N-(2-(3,4,5-trimethoxyphenyl)benzo[d]thiazol-6-yl)benzamide]",3.11 ± 0.03,185 to 187,,
"Oc1ccc2nc(-c3cc(O)c(O)c(O)c3)sc2c1 [Compound 52, 6-Hydroxy-2-(3,4,5-trihydroxyphenyl)benzo[d]thiazole]",0.2 ± 0.01,240 to 242,,
"COc1cccc(-c2nc3ccc(F)cc3s2)c1 [Compound 53, 6-Fluoro-2-(3-methoxyphenyl)benzo[d]thiazole]",0.908 ± 0.02,103 to 105,0.908,
"COc1ccc(-c2nc3ccc(F)cc3s2)cc1 [Compound 54, 6-Fluoro-2-(4-methoxyphenyl)benzo[d]thiazole]",> 100,127 to 130,> 100,
"Fc1cccc(-c2nc3ccc(F)cc3s2)c1 [Compound 55, 6-Fluoro-2-(3-fluorophenyl)benzo[d]thiazole]",52.55 ± 0.06,111 to 112,52.6,
"Oc1ccc(/C=C/c2cc(O)cc(O)c2)cc1 [Resveratrol, trans-3,4’,5-trihydroxystilbene]",,,,0.035
